From patent publication USRE48461E1, “Modulation of androgen receptor expression” (Ionis Pharmaceuticals, Inc., priority 2012, dated 2021)
Oligonucleotides are written 5' to 3', each unit as a sugar letter and its base; * is a phosphorothioate linkage, no mark a phosphodiester; rarer units and linkages stand in square brackets, end groups in braces. Plain capitals give the bases only. e = 2'-O-(2-methoxyethyl) (MOE); k = constrained ethyl (cEt); [5mC] = 5-methylcytosine; d = 2'-deoxy (DNA)

How the values were obtained:
[1] = system: AR mRNA; assay: Antisense inhibition of human AR in HuVEC cells, single concentration (electroporation, qRT-PCR RTS3559); format: cell-based
Outline: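 HuVEC cells electroporated with antisense oligonucleotides at a single concentration. AR mRNA quantified by qRT-PCR using human primer-probe set RTS3559 and normalised to total RNA content by RIBOGREEN.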

[2] = system: AR mRNA; assay: Dose-dependent antisense inhibition of human AR in HuVEC cells (electroporation, qRT-PCR RTS3559, IC50); format: cell-based
Outline: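 HuVEC cells dosed with antisense oligonucleotides by electroporation and treated approximately 16 hours. AR mRNA quantified by real-time qPCR with primer probe set RTS3559 and normalised to total RNA by RIBOGREEN; IC50 from dose-response.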

[3] = Table 31, 46.9 nM, HuVEC, electroporation, approximately 16 hours
[4] = Table 31, 187.5 nM, HuVEC, electroporation, approximately 16 hours
[5] = Table 31, 750.0 nM, HuVEC, electroporation, approximately 16 hours
[6] = Table 31, 3000.0 nM, HuVEC, electroporation, approximately 16 hours
[7] = Table 31, HuVEC, electroporation, approximately 16 hours
[8] = Table 29, 46.9 nM, HuVEC, electroporation, approximately 16 hours
[9] = Table 29, 187.5 nM, HuVEC, electroporation, approximately 16 hours
[10] = Table 29, 750.0 nM, HuVEC, electroporation, approximately 16 hours
[11] = Table 29, 3000.0 nM, HuVEC, electroporation, approximately 16 hours
[12] = Table 29, HuVEC, electroporation, approximately 16 hours

586224 (kT*kT*kG*kA*kT*dT*dT*dA*dA*dT*dG*dG*dT*kT*kG*k[5mC]; antisense) [compound 586224]
% inhibition ([1]; 1,000 nM ASO, ~24 h, Table 13): 90%
percent inhibition of AR ([2]; 46.9 nM, HuVEC, ~16 h, Table 15): 39%
percent inhibition of AR ([2]; 187.5 nM, HuVEC, ~16 h, Table 15): 75%
percent inhibition of AR ([2]; 750.0 nM, HuVEC, ~16 h, Table 15): 93%
percent inhibition of AR ([2]; 3000.0 nM, HuVEC, ~16 h, Table 15): 98%
IC50 ([2]; HuVEC cells, electroporation): 0.05 µM
inhibition of AR mRNA at 46.9 nM ([2]; HuVEC cells, electroporation, 46.9 nM ASO): 39%
inhibition of AR mRNA at 187.5 nM ([2]; HuVEC cells, electroporation, 187.5 nM ASO): 75%
inhibition of AR mRNA at 750.0 nM ([2]; HuVEC cells, electroporation, 750.0 nM ASO): 93%
inhibition of AR mRNA at 3000.0 nM ([2]; HuVEC cells, electroporation, 3000.0 nM ASO): 98%
IC50 ([2]; HuVEC, ~16 h, Table 15): 0.05 µM

583809 (antisense kT*kG*kT*d[5mC]*d[5mC]*dT*dT*dG*dG*dA*dG*dG*dA*kA*kG*kT) [compound 583809]
% inhibition ([1]; Table 19, 500 nM oligonucleotide, electroporation, approximately 24 hours, relative to untreated control): 45%
percent inhibition of AR, 46.9 nM [2, 3]: 13%
percent inhibition of AR, 187.5 nM [2, 4]: 37%
percent inhibition of AR, 750.0 nM [2, 5]: 68%
percent inhibition of AR, 3000.0 nM [2, 6]: 81%
IC50 [2, 7]: 0.36 µM

583609 (antisense k[5mC]*kA*kG*d[5mC]*dT*dA*dG*d[5mC]*dT*d[5mC]*dG*d[5mC]*d[5mC]*k[5mC]*kG*k[5mC]) [compound 583609]
% inhibition ([1]; 500 nM ASO, ~24 h, Table 17): 51%
percent inhibition of AR, 46.9 nM [2, 8]: 16%
percent inhibition of AR, 187.5 nM [2, 9]: 48%
percent inhibition of AR, 750.0 nM [2, 10]: 63%
percent inhibition of AR, 3000.0 nM [2, 11]: 73%
IC50 [2, 12]: 0.36 µM

583713 (antisense kA*kT*k[5mC]*d[5mC]*dT*dT*dG*dA*dG*d[5mC]*dT*dT*dG*kG*k[5mC]*kT) [compound 583713]
% inhibition ([1]; 500 nM ASO, ~24 h, Table 18): 36%
percent inhibition of AR, 46.9 nM [2, 3]: 29%
percent inhibition of AR, 187.5 nM [2, 4]: 51%
percent inhibition of AR, 750.0 nM [2, 5]: 67%
percent inhibition of AR, 3000.0 nM [2, 6]: 74%
IC50 [2, 7]: 0.22 µM

583734 (antisense kT*k[5mC]*kA*d[5mC]*dT*dT*d[5mC]*dG*d[5mC]*dG*d[5mC]*dA*d[5mC]*kG*k[5mC]*kT) [compound 583734]
% inhibition ([1]; 500 nM ASO, ~24 h, Table 18): 46%
percent inhibition of AR, 46.9 nM ([2]; Table 30, 46.9 nM, HuVEC, electroporation, approximately 16 hours): 29%
percent inhibition of AR, 187.5 nM ([2]; Table 30, 187.5 nM, HuVEC, electroporation, approximately 16 hours): 60%
percent inhibition of AR, 750.0 nM ([2]; Table 30, 750.0 nM, HuVEC, electroporation, approximately 16 hours): 74%
percent inhibition of AR, 3000.0 nM ([2]; Table 30, 3000.0 nM, HuVEC, electroporation, approximately 16 hours): 75%
IC50 ([2]; Table 30, HuVEC, electroporation, approximately 16 hours): 0.12 µM

569238 (antisense eG*kT*kT*kG*dA*dT*dT*dT*dA*dA*dT*kG*kG*kT*eT*eG) [compound 569238]
% inhibition ([1]; 1,000 nM ASO, ~24 h, Table 13): 51%
percent inhibition of AR ([2]; 31.25 nM, HuVEC, ~16 h, Table 14): 4%
percent inhibition of AR ([2]; 62.5 nM, HuVEC, ~16 h, Table 14): 32%
percent inhibition of AR ([2]; 125.0 nM, HuVEC, ~16 h, Table 14): 33%
percent inhibition of AR ([2]; 500.0 nM, HuVEC, ~16 h, Table 14): 71%
percent inhibition of AR ([2]; 1000.0 nM, HuVEC, ~16 h, Table 14): 88%
IC50 ([2]; HuVEC, ~16 h, Table 14): 0.202 µM

583571 (antisense kT*k[5mC]*kA*dG*dT*d[5mC]*d[5mC]*dT*dA*d[5mC]*d[5mC]*dA*dG*kG*k[5mC]*kA) [compound 583571]
% inhibition ([1]; 500 nM ASO, ~24 h, Table 16): 43%
percent inhibition of AR, 46.9 nM [2, 8]: 18%
percent inhibition of AR, 187.5 nM [2, 9]: 36%
percent inhibition of AR, 750.0 nM [2, 10]: 53%
percent inhibition of AR, 3000.0 nM [2, 11]: 59%
IC50 [2, 12]: 0.8 µM

549432 (kG*kA*kG*dG*dA*dT*d[5mC]*dA*dT*d[5mC]*dA*d[5mC]*dA*kG*kA*kT) [compound 549432]
% inhibition ([1]; 500 nM ASO, electroporation, ~24 h, Table 2): 90%
percent inhibition of AR ([2]; 55.6 nM, HuVEC, ~16 h, Table 4): 15%
percent inhibition of AR ([2]; 166.7 nM, HuVEC, ~16 h, Table 4): 46%
percent inhibition of AR ([2]; 500.0 nM, HuVEC, ~16 h, Table 4): 80%
percent inhibition of AR ([2]; 1500.0 nM, HuVEC, ~16 h, Table 4): 92%
IC50 ([2]; HuVEC, ~16 h, Table 4): 0.179 µM

584139 (kT*k[5mC]*kT*dA*dA*dA*d[5mC]*dA*dT*dG*dA*d[5mC]*dG*kG*kT*kT; antisense) [compound 584139]
% inhibition ([1]; Table 23, 500 nM oligonucleotide, electroporation, approximately 24 hours, relative to untreated control): 37%
percent inhibition of AR, 46.9 nM ([2]; Table 34, 46.9 nM, HuVEC, electroporation, approximately 16 hours): 13%
percent inhibition of AR, 187.5 nM ([2]; Table 34, 187.5 nM, HuVEC, electroporation, approximately 16 hours): 33%
percent inhibition of AR, 750.0 nM ([2]; Table 34, 750.0 nM, HuVEC, electroporation, approximately 16 hours): 56%
percent inhibition of AR, 3000.0 nM ([2]; Table 34, 3000.0 nM, HuVEC, electroporation, approximately 16 hours): 85%
IC50 ([2]; Table 34, HuVEC, electroporation, approximately 16 hours): 0.4 µM
